Results taken from PubChem BioAssay (NCI).
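Where inhibition never reached the appropriate level, the endpoint shown equals the highest concentration tested. Otherwise, values were interpolated linearly from a five-concentration, 48-hour dose response in 96-well plates. GI50 = concentration required for 50% inhibition of growth. The concentration for full growth arrest is given as TGI.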

Assays:
Experiment in all cases: NCI anticancer screen, dose series, 48 h
NCI-H522 lung = system: NCI-H522 lung
IGROV1 ovarian = system: IGROV1 ovarian
NCI/ADR-RES ovarian = system: NCI/ADR-RES ovarian
NCI-H23 lung = system: NCI-H23 lung
T-47D breast = system: T-47D breast
ACHN renal = system: ACHN renal
SK-MEL-5 melanoma = system: SK-MEL-5 melanoma
HCT-116 colon = system: HCT-116 colon
SF-268 CNS = system: SF-268 CNS
UACC-257 melanoma = system: UACC-257 melanoma
DU-145 prostate = system: DU-145 prostate
OVCAR-5 ovarian = system: OVCAR-5 ovarian
PC-3 prostate = system: PC-3 prostate
RXF 393 renal = system: RXF 393 renal
UACC-62 melanoma = system: UACC-62 melanoma
SW-620 colon = system: SW-620 colon
SNB-75 CNS = system: SNB-75 CNS
HS 578T breast = system: HS 578T breast
SF-539 CNS = system: SF-539 CNS
BT-549 breast = system: BT-549 breast
UO-31 renal = system: UO-31 renal
MALME-3M melanoma = system: MALME-3M melanoma
K-562 leukemia = system: K-562 leukemia
CCRF-CEM leukemia = system: CCRF-CEM leukemia
HOP-62 NSCLC = system: HOP-62 NSCLC
RPMI-8226 leukemia = system: RPMI-8226 leukemia
OVCAR-4 ovarian = system: OVCAR-4 ovarian
HT29 colon = system: HT29 colon
MDA-MB-435 = system: MDA-MB-435
SF-295 CNS = system: SF-295 CNS
HCT-15 colon = system: HCT-15 colon
A498 renal = system: A498 renal
HCC-2998 colon = system: HCC-2998 colon
OVCAR-8 ovarian = system: OVCAR-8 ovarian
CAKI-1 renal = system: CAKI-1 renal
MCF7 breast = system: MCF7 breast
COLO 205 colon = system: COLO 205 colon
NCI-H226 lung = system: NCI-H226 lung
SR leukemia = system: SR leukemia
LOX IMVI melanoma = system: LOX IMVI melanoma
U251 CNS = system: U251 CNS
MDA-MB-231 breast = system: MDA-MB-231 breast
EKVX NSCLC = system: EKVX NSCLC
786-0 renal = system: 786-0 renal
MOLT-4 leukemia = system: MOLT-4 leukemia
SK-MEL-2 melanoma = system: SK-MEL-2 melanoma
OVCAR-3 ovarian = system: OVCAR-3 ovarian
SK-MEL-28 melanoma = system: SK-MEL-28 melanoma
HL-60(TB) leukemia = system: HL-60(TB) leukemia
A549 NSCLC = system: A549 NSCLC
HOP-92 NSCLC = system: HOP-92 NSCLC
SK-OV-3 ovarian = system: SK-OV-3 ovarian
SN12C renal = system: SN12C renal
M14 melanoma = system: M14 melanoma
KM12 colon = system: KM12 colon
TK-10 renal = system: TK-10 renal
NCI-H460 lung = system: NCI-H460 lung
SNB-19 CNS = system: SNB-19 CNS

Q: What does the source list for `O[N+]1=CC=CCC1=S.On1ccccc1=S.[Zn]`?
A: GI50 (NCI-H522 lung): 373 nM; TGI (NCI-H522 lung): 985 nM; GI50 (IGROV1 ovarian): 862 nM; TGI (IGROV1 ovarian): 2720 nM; GI50 (NCI/ADR-RES ovarian): 699 nM; TGI (NCI/ADR-RES ovarian): 2390 nM; GI50 (NCI-H23 lung): 919 nM; TGI (NCI-H23 lung): 2810 nM; GI50 (T-47D breast): 1430 nM; TGI (T-47D breast): 3130 nM; GI50 (ACHN renal): 967 nM; TGI (ACHN renal): 2310 nM; GI50 (SK-MEL-5 melanoma): 1100 nM; TGI (SK-MEL-5 melanoma): 2470 nM; GI50 (HCT-116 colon): 274 nM; TGI (HCT-116 colon): 690 nM; GI50 (SF-268 CNS): 880 nM; TGI (SF-268 CNS): 2510 nM; GI50 (UACC-257 melanoma): 529 nM; TGI (UACC-257 melanoma): 1290 nM; GI50 (DU-145 prostate): 732 nM; TGI (DU-145 prostate): 1860 nM; GI50 (OVCAR-5 ovarian): 1450 nM; TGI (OVCAR-5 ovarian): 3040 nM; GI50 (PC-3 prostate): 834 nM; TGI (PC-3 prostate): 3130 nM; GI50 (RXF 393 renal): 587 nM; TGI (RXF 393 renal): 1360 nM; GI50 (UACC-62 melanoma): 755 nM; TGI (UACC-62 melanoma): 2230 nM; GI50 (SW-620 colon): 899 nM; TGI (SW-620 colon): 2640 nM; GI50 (SNB-75 CNS): 1950 nM; TGI (SNB-75 CNS): 6850 nM; GI50 (HS 578T breast): 2150 nM; TGI (HS 578T breast): > 30700 nM; GI50 (SF-539 CNS): 977 nM; TGI (SF-539 CNS): 2560 nM; GI50 (BT-549 breast): 1520 nM; TGI (BT-549 breast): 3150 nM; GI50 (UO-31 renal): 664 nM; TGI (UO-31 renal): 1970 nM; GI50 (MALME-3M melanoma): 819 nM; TGI (MALME-3M melanoma): 2710 nM; GI50 (K-562 leukemia): 661 nM; TGI (K-562 leukemia): 6980 nM; GI50 (CCRF-CEM leukemia): 437 nM; TGI (CCRF-CEM leukemia): 2750 nM; GI50 (HOP-62 NSCLC): 1210 nM; TGI (HOP-62 NSCLC): 2720 nM; GI50 (RPMI-8226 leukemia): 1390 nM; TGI (RPMI-8226 leukemia): 4050 nM; GI50 (OVCAR-4 ovarian): 530 nM; TGI (OVCAR-4 ovarian): 1630 nM; GI50 (HT29 colon): 300 nM; TGI (HT29 colon): 942 nM; GI50 (MDA-MB-435): 753 nM; TGI (MDA-MB-435): 2270 nM; GI50 (SF-295 CNS): 924 nM; TGI (SF-295 CNS): 2720 nM; GI50 (HCT-15 colon): 1030 nM; TGI (HCT-15 colon): 3020 nM; GI50 (A498 renal): 1510 nM; TGI (A498 renal): 3060 nM; GI50 (HCC-2998 colon): 896 nM; TGI (HCC-2998 colon): 2370 nM; GI50 (OVCAR-8 ovarian): 399 nM; TGI (OVCAR-8 ovarian): 1830 nM; GI50 (CAKI-1 renal): 1530 nM; TGI (CAKI-1 renal): 3130 nM; GI50 (MCF7 breast): 532 nM; TGI (MCF7 breast): 2100 nM; GI50 (COLO 205 colon): 375 nM; TGI (COLO 205 colon): 951 nM; GI50 (NCI-H226 lung): 1020 nM; TGI (NCI-H226 lung): 3040 nM; GI50 (SR leukemia): 351 nM; TGI (SR leukemia): > 23000 nM; GI50 (LOX IMVI melanoma): 429 nM; TGI (LOX IMVI melanoma): 912 nM; GI50 (U251 CNS): 602 nM; TGI (U251 CNS): 1520 nM; GI50 (MDA-MB-231 breast): 759 nM; TGI (MDA-MB-231 breast): 2220 nM; GI50 (EKVX NSCLC): 1360 nM; TGI (EKVX NSCLC): 3000 nM; GI50 (786-0 renal): 931 nM; TGI (786-0 renal): 2290 nM; GI50 (MOLT-4 leukemia): 614 nM; TGI (MOLT-4 leukemia): 6760 nM; GI50 (SK-MEL-2 melanoma): 1600 nM; TGI (SK-MEL-2 melanoma): 3920 nM; GI50 (OVCAR-3 ovarian): 579 nM; TGI (OVCAR-3 ovarian): 1370 nM; GI50 (SK-MEL-28 melanoma): 530 nM; TGI (SK-MEL-28 melanoma): 1210 nM; GI50 (HL-60(TB) leukemia): 2580 nM; TGI (HL-60(TB) leukemia): 6500 nM; GI50 (A549 NSCLC): 811 nM; TGI (A549 NSCLC): 2330 nM; GI50 (HOP-92 NSCLC): 1470 nM; TGI (HOP-92 NSCLC): 3240 nM; GI50 (SK-OV-3 ovarian): 1510 nM; TGI (SK-OV-3 ovarian): 2870 nM; GI50 (SN12C renal): 1000 nM; TGI (SN12C renal): 2530 nM; GI50 (M14 melanoma): 460 nM; TGI (M14 melanoma): 1310 nM; GI50 (KM12 colon): 1280 nM; TGI (KM12 colon): 2600 nM; GI50 (TK-10 renal): 1090 nM; TGI (TK-10 renal): 2470 nM; GI50 (NCI-H460 lung): 935 nM; TGI (NCI-H460 lung): 2870 nM; GI50 (SNB-19 CNS): 1240 nM; TGI (SNB-19 CNS): 2800 nM
